Measurements as given in the CombiSolv-Exp solvation set (Vermeire and Green 2021).

Assay: solvent given as SMILES

## O=[N+]([O-])c1cc[n+]([O-])cc1
In CC(C)CC(C)(C)C
  solvation free energy, 298 K: -7.06 kcal/mol
In CCCCCC
  solvation free energy, 298 K: -7.08 kcal/mol
In CCCCCCC
  solvation free energy, 298 K: -7.12 kcal/mol
In CCCCCCCC
  solvation free energy, 298 K: -7.13 kcal/mol
In CCCCCCCCCC
  solvation free energy, 298 K: -7.16 kcal/mol

## CC(C)CC(C)O (configuration not stated)
In CCCCCCCC
  solvation free energy, 298 K: -4.63 kcal/mol
In CCCCCCCCCC
  solvation free energy, 298 K: -4.56 kcal/mol

## CCC(C)O (configuration not stated)
In Brc1ccccc1
  solvation free energy, 298 K: -4.15 kcal/mol
In C1COCCO1
  solvation free energy, 298 K: -5.54 kcal/mol
In CC#N
  solvation free energy, 298 K: -4.82 kcal/mol
In CC(=O)N(C)C
  solvation free energy, 298 K: -5.89 kcal/mol
In CC(C)(C)O
  solvation free energy, 298 K: -5.67 kcal/mol
In CC(C)CC(C)(C)C
  solvation free energy, 298 K: -3.42 kcal/mol
In CC(C)O
  solvation free energy, 298 K: -5.61 kcal/mol
In CC(C)OC(C)C
  solvation free energy, 298 K: -4.56 kcal/mol
In CCC(C)=O
  solvation free energy, 298 K: -5.18 kcal/mol
In CCCCCC
  solvation free energy, 298 K: -3.56 kcal/mol
In CCCCCCC
  solvation free energy, 298 K: -3.28 kcal/mol
In CCCCCCCC
  solvation free energy, 298 K: -3.26 kcal/mol
In CCCCCCCCCCCCCCCC
  solvation free energy, 298 K: -3.16 kcal/mol
In CCCCCCCCCCO
  solvation free energy, 298 K: -5.31 kcal/mol
In CCCCCCCCO
  solvation free energy, 298 K: -5.15 kcal/mol
In CCCCCl
  solvation free energy, 298 K: -4.17 kcal/mol
In CCCCO
  solvation free energy, 298 K: -5.5 kcal/mol
In CCCCOC(C)=O
  solvation free energy, 298 K: -4.9 kcal/mol
In CCCOCCC
  solvation free energy, 298 K: -4.4 kcal/mol
In CCOC(=O)c1ccccc1C(=O)OCC
  solvation free energy, 298 K: -4.35 kcal/mol
In CN(C)C=O
  solvation free energy, 298 K: -5.67 kcal/mol
In CO
  solvation free energy, 298 K: -6.02 kcal/mol
In Cc1ccc(C)cc1
  solvation free energy, 298 K: -4.23 kcal/mol
In Cc1cccc(C)c1
  solvation free energy, 298 K: -4.14 kcal/mol
In Cc1ccccc1C
  solvation free energy, 298 K: -4.19 kcal/mol
In Clc1ccccc1
  solvation free energy, 298 K: -4.26 kcal/mol

## C1CO1
In O
  solvation free energy, 298 K: -2.87 kcal/mol

## CC(C(=O)O)c1ccc2c(c1)[nH]c1ccc(Cl)cc12 (configuration not stated)
In O
  solvation free energy, 298 K: -15.1 kcal/mol

## CNc1ccccc1
In CCCCCCCCCCCCCCCC
  solvation free energy, 298 K: -6.06 kcal/mol
In O
  solvation free energy, 298 K: -4.69 kcal/mol

## c1ccc2c(c1)OCCOCCOCCOCCO2
In Cc1cccc(C)c1
  solvation free energy, 298 K: -14.8 kcal/mol
In O
  solvation free energy, 298 K: -14.4 kcal/mol

## CCCCCCC
In BrC(Br)C(Br)Br
  solvation free energy, 298 K: -3.34 kcal/mol
In Brc1ccccc1
  solvation free energy, 298 K: -4.35 kcal/mol
In C1CCC(C2CCCCC2)CC1
  solvation free energy, 298 K: -4.48 kcal/mol
In C1CCCCC1
  solvation free energy, 298 K: -4.83 kcal/mol
In C1CCOC1
  solvation free energy, 298 K: -4.58 kcal/mol
In C1COCCO1
  solvation free energy, 298 K: -3.86 kcal/mol
In C=CCCCC
  solvation free energy, 298 K: -4.71 kcal/mol
In C=CCCCCCC
  solvation free energy, 298 K: -4.63 kcal/mol
In C=CCCCCCCCC
  solvation free energy, 298 K: -4.55 kcal/mol
In C=CCCCCCCCCCCCCCC
  solvation free energy, 298 K: -4.24 kcal/mol
In CC1CCS(=O)(=O)C1
  solvation free energy, 298 K: -2.68 kcal/mol
In CC1COC(=O)O1
  solvation free energy, 298 K: -2.54 kcal/mol
In CC#N
  solvation free energy, 298 K: -3.18 kcal/mol
In CC(=O)CC(C)C
  solvation free energy, 298 K: -4.36 kcal/mol
In CC(=O)N(C)C
  solvation free energy, 298 K: -3.36 kcal/mol
In CC(=O)O
  solvation free energy, 298 K: -3.43 kcal/mol
In CC(=O)c1ccccc1
  solvation free energy, 298 K: -3.69 kcal/mol
In CC(C)(C)O
  solvation free energy, 298 K: -3.96 kcal/mol
In CC(C)=O
  solvation free energy, 298 K: -3.84 kcal/mol
In CC(C)CC(C)(C)C
  solvation free energy, 298 K: -4.6 kcal/mol
In CC(C)CCCC(C)CCCC(C)CCCCC(C)CCCC(C)CCCC(C)C
  solvation free energy, 298 K: -4.16 kcal/mol
In CC(C)CCO
  solvation free energy, 298 K: -3.97 kcal/mol
In CC(C)CO
  solvation free energy, 298 K: -3.92 kcal/mol
In CC(C)O
  solvation free energy, 298 K: -3.81 kcal/mol
In CC(C)OC(C)C
  solvation free energy, 298 K: -4.63 kcal/mol
In CC(O)CO
  solvation free energy, 298 K: -2.33 kcal/mol
In CCBr
  solvation free energy, 298 K: -4.71 kcal/mol
In CCC(C)=O
  solvation free energy, 298 K: -4.12 kcal/mol
In CCCC#N
  solvation free energy, 298 K: -3.69 kcal/mol
In CCCC(=O)OCC
  solvation free energy, 298 K: -4.35 kcal/mol
In CCCC(C)=O
  solvation free energy, 298 K: -4.17 kcal/mol
In CCCC(C)O
  solvation free energy, 298 K: -3.99 kcal/mol
In CCCCC
  solvation free energy, 298 K: -4.77 kcal/mol
In CCCCC(CC)COC(=O)CCCCC(=O)OCC(CC)CCCC
  solvation free energy, 298 K: -4.01 kcal/mol
In CCCCC(CC)COC(=O)c1ccccc1C(=O)OCC(CC)CCCC
  solvation free energy, 298 K: -3.79 kcal/mol
In CCCCCC
  solvation free energy, 298 K: -4.77 kcal/mol
In CCCCCC(C)=O
  solvation free energy, 298 K: -4.2 kcal/mol
In CCCCCCCC
  solvation free energy, 298 K: -4.62 kcal/mol
In CCCCCCCCC
  solvation free energy, 298 K: -4.57 kcal/mol
In CCCCCCCCC=CCCCCCCCC(=O)OCC(COC(=O)CCCCCCCC=CCCCCCCCC)OC(=O)CCCCCCCC=CCCCCCCCC
  solvation free energy, 298 K: -4.09 kcal/mol
In CCCCCCCCCC
  solvation free energy, 298 K: -4.53 kcal/mol
In CCCCCCCCCCCC
  solvation free energy, 298 K: -4.43 kcal/mol
In CCCCCCCCCCCCCCCC
  solvation free energy, 298 K: -4.34 kcal/mol
In CCCCCCCCCCCCO
  solvation free energy, 298 K: -3.99 kcal/mol
In CCCCCCCCO
  solvation free energy, 298 K: -4.02 kcal/mol
In CCCCCCO
  solvation free energy, 298 K: -4 kcal/mol
In CCCCCCOC(C)=O
  solvation free energy, 298 K: -4.27 kcal/mol
In CCCCCl
  solvation free energy, 298 K: -4.61 kcal/mol
In CCCCN(C=O)CCCC
  solvation free energy, 298 K: -3.9 kcal/mol
In CCCCO
  solvation free energy, 298 K: -3.95 kcal/mol
In CCCCOC(=O)c1ccccc1C(=O)OCCCC
  solvation free energy, 298 K: -3.88 kcal/mol
In CCCCOC(C)=O
  solvation free energy, 298 K: -4.23 kcal/mol
In CCCCOCCCC
  solvation free energy, 298 K: -4.57 kcal/mol
In CCCCl
  solvation free energy, 298 K: -4.81 kcal/mol
In CCCO
  solvation free energy, 298 K: -3.83 kcal/mol
In CCN1CCCC1=O
  solvation free energy, 298 K: -3.49 kcal/mol
In CCN(CC)C(C)=O
  solvation free energy, 298 K: -3.74 kcal/mol
In CCN(CC)CC
  solvation free energy, 298 K: -4.68 kcal/mol
In CCNC(C)=O
  solvation free energy, 298 K: -3.51 kcal/mol
In CCNC=O
  solvation free energy, 298 K: -3.25 kcal/mol
In CCO
  solvation free energy, 298 K: -3.7 kcal/mol
In CCOC(=O)c1ccccc1C(=O)OCC
  solvation free energy, 298 K: -3.35 kcal/mol
In CCOC(C)(C)C
  solvation free energy, 298 K: -4.62 kcal/mol
In CCOC(C)=O
  solvation free energy, 298 K: -4.09 kcal/mol
In CCOCC
  solvation free energy, 298 K: -4.66 kcal/mol
In CCOCCO
  solvation free energy, 298 K: -3.57 kcal/mol
In CCOCCOCCOCC
  solvation free energy, 298 K: -4.04 kcal/mol
In CCOc1ccccc1
  solvation free energy, 298 K: -4.15 kcal/mol
In CN1CCCC1=O
  solvation free energy, 298 K: -3.2 kcal/mol
In CN1CCCCC1=O
  solvation free energy, 298 K: -3.41 kcal/mol
In CN1CCN(C)C1=O
  solvation free energy, 298 K: -3.1 kcal/mol
In CN(C)C=O
  solvation free energy, 298 K: -3.16 kcal/mol
In CN(C)P(=O)(N(C)C)N(C)C
  solvation free energy, 298 K: -3.67 kcal/mol
In CNC(C)=O
  solvation free energy, 298 K: -3.34 kcal/mol
In CNC=O
  solvation free energy, 298 K: -2.85 kcal/mol
In CO
  solvation free energy, 298 K: -3.39 kcal/mol
In COC(C)(C)C
  solvation free energy, 298 K: -4.68 kcal/mol
In COC(C)=O
  solvation free energy, 298 K: -3.89 kcal/mol
In COCCO
  solvation free energy, 298 K: -3.24 kcal/mol
In COCCOCCOCCOCCOC
  solvation free energy, 298 K: -3.41 kcal/mol
In COc1ccccc1
  solvation free energy, 298 K: -4.06 kcal/mol
In CS(C)=O
  solvation free energy, 298 K: -2.27 kcal/mol
In Cc1ccc(C)cc1
  solvation free energy, 298 K: -4.58 kcal/mol
In Cc1cccc(O)c1
  solvation free energy, 298 K: -3.53 kcal/mol
In Cc1ccccc1
  solvation free energy, 298 K: -4.57 kcal/mol
In Cc1ccccn1
  solvation free energy, 298 K: -4.16 kcal/mol
In ClC(Cl)(Cl)Cl
  solvation free energy, 298 K: -4.81 kcal/mol
In ClC(Cl)Cl
  solvation free energy, 298 K: -4.64 kcal/mol
In ClCCCl
  solvation free energy, 298 K: -4.09 kcal/mol
In ClCCl
  solvation free energy, 298 K: -4.45 kcal/mol
In Clc1ccccc1
  solvation free energy, 298 K: -4.56 kcal/mol
In FC(F)(F)C(F)(F)C(F)(F)C(F)(F)C(F)(F)C(F)(F)C(F)(F)C(F)(F)F
  solvation free energy, 298 K: -2.98 kcal/mol
In FC(F)(F)C(F)(F)C(F)(F)C(F)(F)C(F)(F)C(F)(F)C(F)(F)F
  solvation free energy, 298 K: -3.2 kcal/mol
In FC(F)(F)C(F)(F)C(F)(F)C(F)(F)C(F)(F)C(F)(F)F
  solvation free energy, 298 K: -3.06 kcal/mol
In Fc1ccccc1
  solvation free energy, 298 K: -4.51 kcal/mol
In ICI
  solvation free energy, 298 K: -2.72 kcal/mol
In N#CCCCCC#N
  solvation free energy, 298 K: -2.45 kcal/mol
In N#CCCOCCC#N
  solvation free energy, 298 K: -1.99 kcal/mol
In N#Cc1ccccc1
  solvation free energy, 298 K: -3.76 kcal/mol
In NC=O
  solvation free energy, 298 K: -0.97 kcal/mol
In NCCO
  solvation free energy, 298 K: -1.34 kcal/mol
In Nc1ccccc1
  solvation free energy, 298 K: -2.99 kcal/mol
In O=C1CCCCC1
  solvation free energy, 298 K: -4 kcal/mol
In O=C1CCCO1
  solvation free energy, 298 K: -2.72 kcal/mol
In O=C(O)C(Cl)Cl
  solvation free energy, 298 K: -3.36 kcal/mol
In O=CN1CCOCC1
  solvation free energy, 298 K: -2.52 kcal/mol
In O=Cc1ccco1
  solvation free energy, 298 K: -2.96 kcal/mol
In OCCCCCO
  solvation free energy, 298 K: -2.53 kcal/mol
In OCCCCO
  solvation free energy, 298 K: -2.45 kcal/mol
In OCCCO
  solvation free energy, 298 K: -2.09 kcal/mol
In OCCO
  solvation free energy, 298 K: -1.22 kcal/mol
In OCCOCCO
  solvation free energy, 298 K: -1.9 kcal/mol
In OCCOCCOCCO
  solvation free energy, 298 K: -1.97 kcal/mol
In OCCOCCOCCOCCO
  solvation free energy, 298 K: -2.13 kcal/mol
In OCCS
  solvation free energy, 298 K: -2.46 kcal/mol
In OCCc1ccccc1
  solvation free energy, 298 K: -3.37 kcal/mol
In OCc1ccccc1
  solvation free energy, 298 K: -3.24 kcal/mol
In OCc1ccco1
  solvation free energy, 298 K: -2.87 kcal/mol
In S=C=S
  solvation free energy, 298 K: -4.76 kcal/mol
In c1ccc2c(c1)CCCC2
  solvation free energy, 298 K: -4.37 kcal/mol
In c1ccc2ncccc2c1
  solvation free energy, 298 K: -3.86 kcal/mol
In c1ccc(C2CCCCC2)cc1
  solvation free energy, 298 K: -4.33 kcal/mol
In c1ccccc1
  solvation free energy, 298 K: -4.55 kcal/mol
In c1ccncc1
  solvation free energy, 298 K: -3.9 kcal/mol

## CCCCCC(C)O (configuration not stated)
In O
  solvation free energy, 298 K: -3.88 kcal/mol

## CCc1ccc2ccccc2c1
In O
  solvation free energy, 298 K: -2.26 kcal/mol

## O=c1[nH]cc(C(F)(F)F)c(=O)[nH]1
In O
  solvation free energy, 298 K: -15.5 kcal/mol

## CC(=O)OCC(COC(C)=O)OC(C)=O
In O
  solvation free energy, 298 K: -8.84 kcal/mol
